Values quoted from earlier work, collected in patent US20030219799A1, “Cancer-linked gene as target for chemotherapy” (priority 2002, published 2003).

What was measured:
[1] = in vitro
[2] = test system: cultured cell lines; conditions: versus cis-platin and doxorubicin
[3] = in vivo
[4] = test system: subcutaneous COLO 205 human colon tumor xenografts; conditions: mice, subcutaneous COLO 205 xenografts, doses well below the maximum tolerated dose
[5] = test system: cultured colon cancer cells

COc1cc2cc(c1Cl)N(C)C(=O)C[C@H](OC(=O)[C@H](C)N(C)C(=O)CCS)[C@]1(C)O[C@H]1[C@H](C)[C@@H]1C[C@@](O)(NC(=O)O1)[C@H](OC)/C=C/C=C(\C)C2 [DM1]
cytotoxicity relative to maytansine [1]: up to 10 fold

Cc1c[nH]c2c1[C@@]13C[C@@H]1CN(C(=O)c1cc4cc(NC(=O)c5cc6ccccc6o5)ccc4[nH]1)C3=CC2=O [Adozelesin]
toxicity to cultured cell lines relative to other DNA interacting agents [2]: about 1,000 fold

COc1cc2cc(c1Cl)N(C)C(=O)C[C@H](OC(=O)[C@H](C)N(C)C(C)=O)[C@]1(C)O[C@H]1[C@H](C)[C@@H]1C[C@@](O)(NC(=O)O1)[C@H](OC)/C=C/C=C(\C)C2 [Maytansine]
value in human clinical trials [3]: little value

B1: immunoconjugate of the maytansinoid cytotoxin DM1 and C242 antibody: DM1 linked to C242, a murine IgG1 with affinity for a mucin-like glycoprotein of human colorectal cancers (conjugate, chains of the INN, looked up)
VH: QVQLVQSGAEVKKPGETVKISCKASDYTFTYYGMNWVKQAPGQGLKWMGWIDTTTGEPTYAQKFQGRIAFSLETSASTAYLQIKSLKSEDTATYFCARRGPYNWYFDVWGQGTTVTVSS
VL: DIVMTQSPLSVPVTPGEPVSISCRSSKSLLHSNGNTYLYWFLQRPGQSPQLLIYRMSNLVSGVPDRFSGSGSGTAFTLRISRVEAEDVGVYYCLQHLEYPFTFGPGTKLELK
modifications: DM1 maytansinoid conjugate
anti-tumor effects in vivo [4]: anti-tumor effects
cytotoxicity against cultured colon cancer cells [5]: highly cytotoxic
